Experiments:
S. aureus DSM 20231 = test: Bliss interaction score (quartile over a dose matrix) (fitness difference); higher = more antagonism (negative = synergy)
Summary of the method: (§1)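 Combination data were used to infer fitness under each single drug. Fitness is the OD595 at entry into stationary phase divided by the robust mean of the plate's no-drug wells, with a cap of 1. The Bliss score is the observed minus the expected product fitness, summarised by quartiles over technical, biological and donor/recipient replicates.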

S. aureus Newman = test: as above
Summary of the method: as §1

B. subtilis 168 [1] = test: as above
Summary of the method: as §1

S. pneumoniae D39V [2] = test: as above
Summary of the method: as §1

B. subtilis 168 [3] = test: fitness (endpoint OD595 vs no drug) (fraction); higher = more growth
Summary of the method: (§2)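 Fitness was defined as the optical density at the transition into stationary phase relative to the robust mean of no-drug control wells. Values were capped at 1. Cultures were started at OD595 0.01 in 384-well plates (30 µl, or 55 µl for S. pneumoniae) in TSB, LB Lennox or CY at 37 °C. OD595 was recorded every 30 min over 14 h, with the first reading subtracted as background.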

S. pneumoniae D39V [4] = test: as above
Summary of the method: as §2
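Wherever Bliss interaction score (quartile over a dose matrix) is given: first quartile when negative (synergy) and third quartile when positive (antagonism).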

C[C@H]1c2cccc(O)c2C(=O)C2=C(O)[C@]3(O)C(=O)C(C(N)=O)=C(O)[C@@H](N(C)C)[C@@H]3[C@@H](O)[C@@H]21 [Doxycycline] + CCC(C)C1C(=O)NC(=C)C(=O)NC(C(=O)NC(CSCC(C(=O)N1)NC(=O)/C(=C/C)/NC(=O)C(C(C)CC)N)C(=O)NC2C(SCC(NC(=O)CNC(=O)C3CCCN3C2=O)C(=O)NC(CCCCN)C(=O)NC4C(SCC(NC(=O)CNC(=O)C(NC(=O)C(NC(=O)C(NC(=O)CNC4=O)C)CC(C)C)CCSC)C(=O)NC(CC(=O)N)C(=O)NC(CCSC)C(=O)NC(CCCCN)C(=O)NC5C(SCC6C(=O)NC(C(=O)NC(CSC(C(C(=O)N6)NC(=O)C(NC5=O)C)C)C(=O)NC(CO)C(=O)NC(C(C)CC)C(=O)NC(CC7=CN=CN7)C(=O)NC(C(C)C)C(=O)NC(=C)C(=O)NC(CCCCN)C(=O)O)CC8=CN=CN8)C)C)C)CC(C)C [Nisin]
main component drawn
Settings	Bliss interaction score
B. subtilis 168 [1]	0.0503
S. aureus DSM 20231	-0.0392
S. aureus Newman	0.0561
S. pneumoniae D39V [2]	-0.161

main component drawn
Settings	fitness
B. subtilis 168 [3], first compound 0.02 µg/mL, partner 0.5 µg/mL	0.836
B. subtilis 168 [3], first compound 0.02 µg/mL, partner 1 µg/mL	0.809
B. subtilis 168 [3], first compound 0.02 µg/mL, partner 2 µg/mL	0.476
B. subtilis 168 [3], first compound 0.04 µg/mL, partner 0.5 µg/mL	0.755
B. subtilis 168 [3], first compound 0.04 µg/mL, partner 1 µg/mL	0.741
B. subtilis 168 [3], first compound 0.04 µg/mL, partner 2 µg/mL	0.403
B. subtilis 168 [3], first compound 0.08 µg/mL, partner 0.5 µg/mL	0.61
B. subtilis 168 [3], first compound 0.08 µg/mL, partner 1 µg/mL	0.541
B. subtilis 168 [3], first compound 0.08 µg/mL, partner 2 µg/mL	0.0887
S. pneumoniae D39V [4], first compound 0.0155 µg/mL, partner 0.4275 µg/mL	0.935
S. pneumoniae D39V [4], first compound 0.0155 µg/mL, partner 0.855 µg/mL	0.803
S. pneumoniae D39V [4], first compound 0.0155 µg/mL, partner 1.6 µg/mL	0.192
S. pneumoniae D39V [4], first compound 0.0155 µg/mL, partner 1.71 µg/mL	0.0645
S. pneumoniae D39V [4], first compound 0.0155 µg/mL, partner 3.2 µg/mL	0.017
S. pneumoniae D39V [4], first compound 0.0155 µg/mL, partner 6.4 µg/mL	0.0088
S. pneumoniae D39V [4], first compound 0.031 µg/mL, partner 0.4275 µg/mL	0.89
S. pneumoniae D39V [4], first compound 0.031 µg/mL, partner 0.855 µg/mL	0.596
S. pneumoniae D39V [4], first compound 0.031 µg/mL, partner 1.71 µg/mL	0.0413
S. pneumoniae D39V [4], first compound 0.062 µg/mL, partner 0.4275 µg/mL	0.846
S. pneumoniae D39V [4], first compound 0.062 µg/mL, partner 1.71 µg/mL	0.0711

fitness, one replicate, main component drawn
Settings	partner 1.25 µg/mL	partner 1.6 µg/mL	partner 2.5 µg/mL	partner 3.2 µg/mL	partner 4 µg/mL	partner 5 µg/mL	partner 6.4 µg/mL	partner 8 µg/mL	partner 16 µg/mL
B. subtilis 168 [3], first compound 0.02 µg/mL	0.915	0.287	0.481	0.0387	0.0411	0.0601	0.0419	0.0354	0.0177
B. subtilis 168 [3], first compound 0.04 µg/mL	0.935	0.358	0.464	0.0224	0.137	0.0251	0.035	0.0271	0.024
B. subtilis 168 [3], first compound 0.08 µg/mL	0.594	0.0173	0.165	0.0251	0.0169	0.0318	0.0245	0.0228	0.0199
S. pneumoniae D39V [4], first compound 0.003875 µg/mL	–	0.0092	–	0	–	–	0.0176	–	–
S. pneumoniae D39V [4], first compound 0.00775 µg/mL	–	0.0172	–	0	–	–	0.0097	–	–
S. pneumoniae D39V [4], first compound 0.031 µg/mL	–	0.222	–	0.0345	–	–	0	–	–
S. pneumoniae D39V [4], first compound 0.062 µg/mL	–	0.0897	–	0.0057	–	–	0.0088	–	–

CO/N=C(\C(=O)N[C@@H]1C(=O)N2C(C(=O)O)=C(COC(C)=O)CS[C@H]12)c1csc(N)n1 [Cefotaxime] + C[C@H]1COc2c(N3CCN(C)CC3)c(F)cc3c(=O)c(C(=O)O)cn1c23 [Levofloxacin]
Settings	Bliss interaction score
B. subtilis 168 [1]	0.0631
S. aureus DSM 20231	-0.0398
S. aureus Newman	0.0336
S. pneumoniae D39V [2]	0.112

fitness, B. subtilis 168 [3], one replicate
Settings	first compound 0.00775 µg/mL	first compound 0.0155 µg/mL	first compound 0.031 µg/mL	first compound 0.0625 µg/mL	first compound 0.125 µg/mL	first compound 0.25 µg/mL
partner 0.001 µg/mL	–	–	–	0.491	0.378	0.158
partner 0.002 µg/mL	0.874	0.691	0.57	0.382	0.311	0.158
partner 0.0039 µg/mL	0.834	0.683	0.565	0.418	0.306	0.128
partner 0.0078 µg/mL	0.812	0.659	0.496	–	–	–

Settings	fitness
B. subtilis 168 [3], first compound 0.5 µg/mL, partner 0.0312 µg/mL	0.0483
B. subtilis 168 [3], first compound 0.5 µg/mL, partner 0.0625 µg/mL	0.0584
B. subtilis 168 [3], first compound 0.5 µg/mL, partner 0.125 µg/mL	0.0586
B. subtilis 168 [3], first compound 1 µg/mL, partner 0.0312 µg/mL	0.0414
B. subtilis 168 [3], first compound 1 µg/mL, partner 0.0625 µg/mL	0.0443
B. subtilis 168 [3], first compound 1 µg/mL, partner 0.125 µg/mL	0.0448
B. subtilis 168 [3], first compound 2 µg/mL, partner 0.0312 µg/mL	0.0456
B. subtilis 168 [3], first compound 2 µg/mL, partner 0.0625 µg/mL	0.0537
B. subtilis 168 [3], first compound 2 µg/mL, partner 0.125 µg/mL	0.0738
S. pneumoniae D39V [4], first compound 0.0018 µg/mL, partner 0.1725 µg/mL	0.986
S. pneumoniae D39V [4], first compound 0.0018 µg/mL, partner 0.2 µg/mL	0.966
S. pneumoniae D39V [4], first compound 0.0018 µg/mL, partner 0.345 µg/mL	0.956
S. pneumoniae D39V [4], first compound 0.0018 µg/mL, partner 0.4 µg/mL	0.925
S. pneumoniae D39V [4], first compound 0.0018 µg/mL, partner 0.69 µg/mL	0.701
S. pneumoniae D39V [4], first compound 0.0018 µg/mL, partner 0.8 µg/mL	0.632
S. pneumoniae D39V [4], first compound 0.0035 µg/mL, partner 0.1725 µg/mL	0.985
S. pneumoniae D39V [4], first compound 0.0035 µg/mL, partner 0.2 µg/mL	0.943
S. pneumoniae D39V [4], first compound 0.0035 µg/mL, partner 0.345 µg/mL	0.939
S. pneumoniae D39V [4], first compound 0.0035 µg/mL, partner 0.4 µg/mL	0.894
S. pneumoniae D39V [4], first compound 0.0035 µg/mL, partner 0.69 µg/mL	0.656
S. pneumoniae D39V [4], first compound 0.0035 µg/mL, partner 0.8 µg/mL	0.611
S. pneumoniae D39V [4], first compound 0.007 µg/mL, partner 0.1725 µg/mL	0.824
S. pneumoniae D39V [4], first compound 0.007 µg/mL, partner 0.2 µg/mL	0.922
S. pneumoniae D39V [4], first compound 0.007 µg/mL, partner 0.345 µg/mL	0.731
S. pneumoniae D39V [4], first compound 0.007 µg/mL, partner 0.4 µg/mL	0.846
S. pneumoniae D39V [4], first compound 0.007 µg/mL, partner 0.8 µg/mL	0.548

COc1cccc2c1C(=O)c1c(O)c3c(c(O)c1C2=O)C[C@@](O)(C(=O)CO)C[C@@H]3O[C@H]1C[C@H](N)[C@H](O)[C@H](C)O1 [Doxorubicin] + CN(C)C(=O)C(CCN1CCC(O)(c2ccc(Cl)cc2)CC1)(c1ccccc1)c1ccccc1 [Loperamide]
Settings	Bliss interaction score
B. subtilis 168 [1]	-0.228
S. aureus DSM 20231	-0.0983
S. aureus Newman	-0.0664
S. pneumoniae D39V [2]	0.0787

Settings	fitness
B. subtilis 168 [3], first compound 0.625 µg/mL, partner 50 µg/mL	0.0285
B. subtilis 168 [3], first compound 0.625 µg/mL, partner 100 µg/mL	0.0284
B. subtilis 168 [3], first compound 1.25 µg/mL, partner 50 µg/mL	0.0281
B. subtilis 168 [3], first compound 1.25 µg/mL, partner 100 µg/mL	0.0427
B. subtilis 168 [3], first compound 2.5 µg/mL, partner 25 µg/mL	0.0131
B. subtilis 168 [3], first compound 2.5 µg/mL, partner 50 µg/mL	0.0232
B. subtilis 168 [3], first compound 2.5 µg/mL, partner 100 µg/mL	0.019
S. pneumoniae D39V [4], first compound 0.25 µg/mL, partner 17.14 µg/mL	0.905
S. pneumoniae D39V [4], first compound 0.25 µg/mL, partner 20 µg/mL	≥ 1
S. pneumoniae D39V [4], first compound 0.25 µg/mL, partner 34.28 µg/mL	0.884
S. pneumoniae D39V [4], first compound 0.25 µg/mL, partner 40 µg/mL	≥ 1
S. pneumoniae D39V [4], first compound 0.5 µg/mL, partner 17.14 µg/mL	0.915
S. pneumoniae D39V [4], first compound 0.5 µg/mL, partner 20 µg/mL	≥ 1
S. pneumoniae D39V [4], first compound 0.5 µg/mL, partner 34.28 µg/mL	0.899
S. pneumoniae D39V [4], first compound 0.5 µg/mL, partner 40 µg/mL	≥ 1
S. pneumoniae D39V [4], first compound 1 µg/mL, partner 17.14 µg/mL	0.912
S. pneumoniae D39V [4], first compound 1 µg/mL, partner 20 µg/mL	0.991
S. pneumoniae D39V [4], first compound 1 µg/mL, partner 34.28 µg/mL	0.902
S. pneumoniae D39V [4], first compound 1 µg/mL, partner 40 µg/mL	0.967

S. pneumoniae D39V [4], partner 68.57 µg/mL, one replicate
Settings	fitness
first compound 0.25 µg/mL	0.87
first compound 0.5 µg/mL	0.872
first compound 1 µg/mL	0.929

Reference: the supplement of paper PMC10627819
